Data taken from patent US11498899B2, “Nitrone herbicides” (FMC Corporation, priority 2016, dated 2022).

Columns and labels:
[1] = system: galium (catchweed bedstraw, Galium aparine); experiment: Test A postemergence, visual injury rating 0-100; assay type: in vivo; settings: 0 to 100 scale
[2] = system: ryegrass, Italian (Italian ryegrass, Lolium multiflorum); experiment: Test A postemergence, visual injury rating 0-100; assay type: in vivo; settings: 0 to 100 scale
corn (Zea mays) = experiment: Test A postemergence, visual injury rating 0-100; assay type: in vivo; settings: 0 to 100 scale
[3] = system: pigweed (Amaranthus retroflexus); experiment: Test A postemergence, visual injury rating 0-100; assay type: in vivo; settings: 0 to 100 scale
[4] = system: foxtail, giant (giant foxtail, Setaria faberii); experiment: Test A postemergence, visual injury rating 0-100; assay type: in vivo; settings: 0 to 100 scale
[5] = system: blackgrass (Alopecurus myosuroides); experiment: Test A postemergence, visual injury rating 0-100; assay type: in vivo; settings: 0 to 100 scale
[6] = system: ragweed (common ragweed, Ambrosia elatior); experiment: Test A postemergence, visual injury rating 0-100; assay type: in vivo; settings: 0 to 100 scale
[7] = system: wheat (Triticum aestivum); experiment: Test A postemergence, visual injury rating 0-100; assay type: in vivo; settings: 0 to 100 scale
[8] = system: barnyardgrass (Echinochloa crus-galli); experiment: Test A postemergence, visual injury rating 0-100; assay type: in vivo; settings: 0 to 100 scale
kochia (Kochia scoparia) [9] = experiment: Test A postemergence, visual injury rating 0-100; assay type: in vivo; settings: 0 to 100 scale
[10] = system: ducksalad (Heteranthera limosa); experiment: Test B flooded paddy test, visual rating 0-100; settings: Flood, 250 g ai/ha, applied to paddy water, rated after 13 to 15 days
[11] = system: barnyardgrass (Echinochloa crus-galli); experiment: Test A preemergence, visual injury rating 0-100 (0 no effect, 100 complete control); assay type: in vivo; settings: for Barnyardgrass plant response rating: 125 g ai/ha, 0 to 100 scale (0 no effect, 100 complete control), approx. 10 days; for Barnyardgrass plant response rating (0 to 100 scale): 500 g ai/ha
[12] = system: barnyardgrass (Echinochloa crus-galli); experiment: Test B flooded paddy test, visual rating 0-100; settings: Flood, 250 g ai/ha, applied to paddy water, rated after 13 to 15 days
[13] = system: ryegrass, Italian (Italian ryegrass, Lolium multiflorum); experiment: Test A preemergence, visual injury rating 0-100; assay type: in vivo; settings: for Ryegrass, Italian plant response rating: 125 g ai/ha, 0 to 100 scale (0 no effect, 100 complete control), approx. 10 days; for Ryegrass, Italian plant response rating (0 to 100 scale): 500 g ai/ha
[14] = system: pigweed (Amaranthus retroflexus); experiment: Test A preemergence, visual injury rating 0-100; assay type: in vivo; settings: for Pigweed plant response rating: 125 g ai/ha, 0 to 100 scale (0 no effect, 100 complete control), approx. 10 days; for Pigweed plant response rating (0 to 100 scale): 500 g ai/ha
[15] = system: foxtail, giant (giant foxtail, Setaria faberii); experiment: Test A preemergence, visual injury rating 0-100; assay type: in vivo; settings: for Foxtail, Giant plant response rating: 125 g ai/ha, 0 to 100 scale (0 no effect, 100 complete control), approx. 10 days; for Foxtail, Giant plant response rating (0 to 100 scale): 500 g ai/ha
[16] = system: ragweed (common ragweed, Ambrosia elatior); experiment: Test A preemergence, visual injury rating 0-100; assay type: in vivo; settings: for Ragweed plant response rating: 125 g ai/ha, 0 to 100 scale (0 no effect, 100 complete control), approx. 10 days; for Ragweed plant response rating (0 to 100 scale): 500 g ai/ha
kochia (Kochia scoparia) [17] = experiment: Test A preemergence, visual injury rating 0-100; assay type: in vivo; settings: for Kochia plant response rating: 125 g ai/ha, 0 to 100 scale (0 no effect, 100 complete control), approx. 10 days; for Kochia plant response rating (0 to 100 scale): 500 g ai/ha
rice (Oryza sativa) = experiment: Test B flooded paddy test, visual rating 0-100 (0 no effect, 100 complete control); settings: Flood, 250 g ai/ha, applied to paddy water, rated after 13 to 15 days

SMILES | Galium plant response rating ([1]; 125 g ai/ha) | Galium plant response rating ([1]; 500 g ai/ha) | Ryegrass, Italian plant response rating ([2]; 125 g ai/ha) | Ryegrass, Italian plant response rating ([2]; 500 g ai/ha) | Corn plant response rating (corn (Zea mays); 125 g ai/ha) | Corn plant response rating (corn (Zea mays); 500 g ai/ha) | Pigweed plant response rating ([3]; 125 g ai/ha) | Pigweed plant response rating ([3]; 500 g ai/ha) | Foxtail, Giant plant response rating ([4]; 125 g ai/ha) | Foxtail, Giant plant response rating ([4]; 500 g ai/ha) | Blackgrass plant response rating ([5]; 125 g ai/ha) | Blackgrass plant response rating ([5]; 500 g ai/ha) | Ragweed plant response rating ([6]; 125 g ai/ha) | Ragweed plant response rating ([6]; 500 g ai/ha) | Wheat plant response rating ([7]; 125 g ai/ha) | Wheat plant response rating ([7]; 500 g ai/ha) | Barnyardgrass plant response rating ([8]; 125 g ai/ha) | Barnyardgrass plant response rating ([8]; 500 g ai/ha) | Kochia plant response rating (kochia (Kochia scoparia) [9]; 125 g ai/ha) | Kochia plant response rating (kochia (Kochia scoparia) [9]; 500 g ai/ha) | other results
CC1=[N+]([O-])C(C(=O)Nc2cccc(F)c2F)C(c2cccc(Cl)c2C)C1 (racemic) [Compound 117] | 70 | 70 | 30 | 60 | 30 | 70 | 0 | 70 | 80 | 90 | 60 | 70 | 0 | 60 | 20 | 80 | 60 | 80 | 0 | 60 | Ducksalad plant response rating (0 to 100 scale) [10]: 0; Barnyardgrass plant response rating [11]: 90; Barnyardgrass plant response rating (0 to 100 scale) [11]: 90; Barnyardgrass plant response rating (0 to 100 scale) [12]: 0; Ryegrass, Italian plant response rating [13]: 60; Ryegrass, Italian plant response rating (0 to 100 scale) [13]: 90; Pigweed plant response rating [14]: 60; Pigweed plant response rating (0 to 100 scale) [14]: 80; Foxtail, Giant plant response rating [15]: 90; Foxtail, Giant plant response rating (0 to 100 scale) [15]: 90; Ragweed plant response rating [16]: 30; Ragweed plant response rating (0 to 100 scale) [16]: 90; Kochia plant response rating (kochia (Kochia scoparia) [17]): 10; Kochia plant response rating (0 to 100 scale) (kochia (Kochia scoparia) [17]): 80; Rice plant response rating (0 to 100 scale) (rice (Oryza sativa)): 0
CC1=[N+]([O-])C(C(=O)Nc2cccc(F)c2F)C(c2cccc3c2CCC3)C1 (racemic) [Compound 118] | 50 | 50 | 50 | 90 | 70 | 80 | 0 | 30 | 50 | 90 | 50 | 70 | 0 | 70 | 40 | 80 | 60 | 80 | 50 | 60 | Ducksalad plant response rating (0 to 100 scale) [10]: 90; Barnyardgrass plant response rating [11]: 90; Barnyardgrass plant response rating (0 to 100 scale) [11]: 100; Barnyardgrass plant response rating (0 to 100 scale) [12]: 95; Ryegrass, Italian plant response rating [13]: 90; Ryegrass, Italian plant response rating (0 to 100 scale) [13]: 100; Pigweed plant response rating [14]: 40; Pigweed plant response rating (0 to 100 scale) [14]: 80; Foxtail, Giant plant response rating [15]: 90; Foxtail, Giant plant response rating (0 to 100 scale) [15]: 100; Ragweed plant response rating [16]: 70; Ragweed plant response rating (0 to 100 scale) [16]: 90; Kochia plant response rating (kochia (Kochia scoparia) [17]): 20; Kochia plant response rating (0 to 100 scale) (kochia (Kochia scoparia) [17]): 80; Rice plant response rating (0 to 100 scale) (rice (Oryza sativa)): 15
CC1=[N+]([O-])C(C(=O)Nc2cccc(F)c2F)C(c2ccc(=O)n(Cc3ccc(Cl)cc3)c2)C1 (racemic) [Compound 119] | 0 | 0 | 10 | 20 | 0 | 0 | 0 | 0 | 0 | 0 | 0 | 0 | 0 | 0 | 0 | 0 | 0 | 0 | 0 | 0 | Ducksalad plant response rating (0 to 100 scale) [10]: 0; Barnyardgrass plant response rating [11]: 0; Barnyardgrass plant response rating (0 to 100 scale) [11]: 0; Barnyardgrass plant response rating (0 to 100 scale) [12]: 0; Ryegrass, Italian plant response rating [13]: 0; Ryegrass, Italian plant response rating (0 to 100 scale) [13]: 0; Pigweed plant response rating [14]: 0; Pigweed plant response rating (0 to 100 scale) [14]: 0; Foxtail, Giant plant response rating [15]: 0; Foxtail, Giant plant response rating (0 to 100 scale) [15]: 0; Ragweed plant response rating [16]: 0; Kochia plant response rating (kochia (Kochia scoparia) [17]): 0; Kochia plant response rating (0 to 100 scale) (kochia (Kochia scoparia) [17]): 0; Rice plant response rating (0 to 100 scale) (rice (Oryza sativa)): 0
